In patent US20130323283A1, “COMPOSITIONS AND METHODS FOR TREATING FOXP3+ TREG RELATED DISEASES” (THE CHILDREN'S HOSPITAL OF PHILADELPHIA, priority 2010, published 2013):

Key:
Tregs = assay: in vitro murine Treg suppression assay (CFSE-labeled Teff proliferation); format: cell-based; conditions: for % proliferating cells: 5 μM, 72 hours
Experimental: Med. (2007) 13:1299-307, the contents of which are incorporated by their entireties. In these assays, effector T cells (Teffs) were labeled with carboxyfluorescein diacetate succinimidyl ester (CFSE), and stimulated by CD3 mAb plus irradiated antigen presenting cells (APCs). […] The percentage of proliferating CFSE-labeled Teffs in each mixture was assessed by flow cytometry after 72 hours as shown in Table 1.

Treg and Teff cells [1] = assay: Treg and Teff gene expression in vitro by qPCR; format: cell-based; conditions: 5 μM, 24 hours, CD3/CD28 mAbs plus IL-2
Experimental: Gene expression Foxp3, CTLA-4, GITR and TGF-β in the activated Treg and Teff cells was determined by qPCR (mean±SD, n=3/grp) and normalized to 18S.

Teffs and Tregs = assay: CD4+ Foxp3+ proportion and MFI in Teffs and Tregs by flow cytometry; format: cell-based; conditions: 6 hours
Experimental: Teffs and Tregs were isolated, and treated with 5, 10, or 20 μM p300i or DMSO for 6 hours. Flow cytometry was used to determine the CD4+ Foxp3+ proportion in Teffs or Tregs (Table 2) and the mean fluorescent intensity (MFI) of CD4+ Foxp3+ cells in Teffs or Tregs (Table 3) before or after being treated with p300i or DMSO.

B6 mice = assay: T cell proportions in lymph nodes and spleen of treated mice; format: in vivo; conditions: for CD4 proportion / CD8 proportion / CD62L CD44 proportion / Foxp3+ CD4 proportion: 0.9 mg/kg/day via Alzet pump for 7 days
Experimental: (§1) Treg and Teff cells were purified using magnetic beads from DMSO- or p300i-treated mice.
The proportions of CD4, CD8, Foxp3+ CD4, or CD62L CD44 (markers of memory vs. naive T cells) cells in lymph nodes (LN) and spleen (SP) of DMSO- and C646-treated mice were determined as shown in Table 4.

Treg and Teff cells [2] = assay: gene expression by Treg and Teff cells from treated mice (qPCR); format: in vivo; conditions: cells from mice given 0.9 mg/kg/day for 7 days
Experimental: as §1
Gene expression by Treg and Teff cells from DSMO- or C646-treated mice (four mice/group) was analyzed by qPCR.

Tregs and Teff cells = assay: Treg suppression assays with cells purified from treated mice; format: in vivo; conditions: Treg:Teff 2:1 to 0:1
Description: as §1

[3] = test system: CFSE-labeled CD4 and CD8 cells; assay: first parent-to-F1 assay (C57BL/6->DBA/B6), alloantigen-induced T cell proliferation in vivo; parameters: species or system mice; conditions: 0.8 mg/kg/d continuous via Alzet pump; 3 day assay
Description: In the first parent-to-F1 assay (C57BL/6->DBA/B6) (Tao et al., J. Immunol. (2005) 175:5774-82; Tao et al., J. Immunol. (2008) 180:6649-55; the contents of both of which are incorporated herein in their entireties), activation and proliferation of adoptively transferred CFSE-labeled CD4 and CD8 cells was monitored by flow cytometry in a 3 day assay. […] The percentages of CFSE-labeled CD4 proliferating or dividing cells from DSMO- and C646-treated mice were 65% and 73%, respectively. The percentages of CFSE-labeled CD8 proliferating or dividing cells from DSMO- and C646-treated mice were 93% and 95%, respectively.

CFSE-labeled T cells = assay: second parent-to-F1 assay (B6 T cells into B6D2F1 mice); format: in vivo; conditions: 0.9 mg/kg/d for 3 days by Alzet pumps
Description: The percentages of CFSE-labeled CD4 proliferating cells from DSMO- and C646-treated mice were 94.5% and 95.0%, respectively. The percentages of CFSE-labeled CD8 proliferating or dividing cells from DSMO- and C646-treated mice were 78.5% and 81.6%, respectively. Donor CD4 and CD8 cells (H-2d negative) from both groups had similar alloantigen-induced activation and proliferation (p>0.05).

cardiac allografts = assay: cardiac allograft model (BALB/c hearts into B6 RAG-/- recipients with adoptive transfer); format: in vivo, mice
Description: The effects of several HAT inhibitors (HATi) in a cardiac allograph model were studied in three experiments. This model involved vascularized cardiac allografts from BALB/c donors transplanted into immunodeficient C57BL/6 RAG−/− (B6 RAG−/−) recipients. The recipients were adoptively transferred with 1×10^6 purified C57BL/6 Teff cells (CD4+CD25−) alone or in combination with 0.5×10^6 purified Treg cells (CD4+CD25+). The cardiac allograft survival rates of the allograft recipients were monitored over a period of 120 days post-transplant.
In the first experiment, the allograft recipients were adoptively transferred with 1×10^6 Teff cells and 0.5×10^6 purified Tregs (CD4+CD25+), and treated with DMSO (control) or a HAT inhibitor via Alzet pump. Four HAT inhibitors were tested. […] One was a PCAF/GCN5 inhibitor, Lys-20-CoA-Tat. […] Rejection was defined as cessation of heartbeat.
The p300i was delivered to the allograft recipients at 0.9 mg/kg/d for 14 d using Alzet pumps.
In the third experiment, B6/RAG−/− mice (n=4/grp) were engrafted with fully MHC-mismatched BALB/c cardiac grafts and adoptively transferred with WT B6 Teff cells (1×10^6) alone or plus Tregs (0.5×10^6). […] Use of p300−/− Tregs was also unable to suppress Teff cells and prolong allograft survival in this adoptive transfer model.

TC1 lung cancer cells [4] = assay: TC1 lung cancer tumor growth in WT B6 mice; format: in vivo
Experimental: In the second experiment, p300 inhibition was achieved by using a p300 inhibitor. TC1 lung cancer cells were injected in the flanks of WT B6 mice. […] Tumor volume was monitored in the mice on days 6, 10, 12, 15 and 19 post-tumor injection (FIG. 5B). […] DMSO- and C646-treated mice having tumors were obtained as described in Example 9. […] The growth of tumors in the mice was monitored by tumor volume and tumor weight (FIG. 6B).

TC1 lung cancer cells [5] = assay: TC1 lung cancer tumor growth in immunodeficient RAG-/- mice; format: in vivo
Experimental: TC1 lung cancer cells were injected in the flanks of RAG−/− mice. […] Tumors were harvested from the mice 17 days post-tumor injection. Tumor volume was monitored on days 0, 5, 10, 13 and 17 post-tumor injection. […] Tumors were exposed to C646 in RAG−/− mice. […] No effects on acetylation of certain p300-independent targets in the tumor extracts was observed (e.g. acetylation of alpha-tubulin was unimpaired).

[6] = compared with DMSO-treated mice, p<0.005
[7] = qPCR, tumors from treated mice vs DMSO

SMILES: CC1=NN(c2ccc(C(=O)O)cc2)C(=O)/C1=C\c1ccc(-c2cc(C)c(C)cc2[N+](=O)[O-])o1 [C646]
- suppressive actions of Tregs (Tregs; HATi 5 μM): largely abrogated the suppressive actions of Tregs
- % proliferating cells (Tregs; Treg:Teff 0:1): 88%
- % proliferating cells (Tregs; Treg:Teff 1:1): 66%
- % proliferating cells (Tregs; Treg:Teff 1:2): 70%
- % proliferating cells (Tregs; Treg:Teff 1:4): 78%
- % proliferating cells (Tregs; Treg:Teff 1:8): 85%
- Treg expression of GITR gene (Treg and Teff cells [1]): downregulated
- Treg expression of CTLA-4 gene (Treg and Teff cells [1]; statistical significance): downregulated
- Treg expression of Foxp3 gene (Treg and Teff cells [1]; statistical significance): downregulated
- Treg expression of TGF-β gene (Treg and Teff cells [1]; statistical significance): downregulated
- mean fluorescent intensity (MFI) of CD4+ Foxp3+ cells (Teffs and Tregs; Teff, 5 μM): 121
- mean fluorescent intensity (MFI) of CD4+ Foxp3+ cells (Teffs and Tregs; Teff, 10 μM): 108
- mean fluorescent intensity (MFI) of CD4+ Foxp3+ cells (Teffs and Tregs; Teff, 20 μM): 91
- CD4+ Foxp3+ proportion (Teffs and Tregs; Teffs, 5 μM): 2
- CD4+ Foxp3+ proportion (Teffs and Tregs; Teffs, 10 μM): 2
- CD4+ Foxp3+ proportion (Teffs and Tregs; Teffs, 20 μM): 1
- mean fluorescent intensity (MFI) of CD4+ Foxp3+ cells (Teffs and Tregs; Treg, 5 μM): 280
- mean fluorescent intensity (MFI) of CD4+ Foxp3+ cells (Teffs and Tregs; Treg, 10 μM): 253
- mean fluorescent intensity (MFI) of CD4+ Foxp3+ cells (Teffs and Tregs; Treg, 20 μM): 138
- CD4+ Foxp3+ proportion (Teffs and Tregs; Tregs, 5 μM): 71
- CD4+ Foxp3+ proportion (Teffs and Tregs; Tregs, 10 μM): 68
- CD4+ Foxp3+ proportion (Teffs and Tregs; Tregs, 20 μM): 49
- effect on the proportions of the tested cells (CD4, CD8, Foxp3+ CD4, CD62L CD44) (B6 mice; LN and SP, compared to DMSO-treated mice, 0.9 mg/kg/day, 7 days): negligible effect
- CD4 proportion (B6 mice; LN): 35
- CD8 proportion (B6 mice; LN): 34
- CD62L CD44 proportion (B6 mice; LN): 6
- Foxp3+ CD4 proportion (B6 mice; LN): 8
- CD4 proportion (B6 mice; SP): 18
- CD8 proportion (B6 mice; SP): 12
- CD62L CD44 proportion (B6 mice; SP): 12
- Foxp3+ CD4 proportion (B6 mice; SP): 13
- expression of CTLA4 by Treg cells (Treg and Teff cells [2]; p<0.01): significantly decreased
- expression of GITR by Treg cells (Treg and Teff cells [2]; p<0.01): significantly decreased
- expression of IL-10 by Treg cells (Treg and Teff cells [2]; p<0.01): significantly decreased
- expression of TGF-β by Treg cells (Treg and Teff cells [2]; p<0.01): significantly decreased
- expression of CTLA4, GITR, IL-10 and TGF-β by Teff cells (Treg and Teff cells [2]; p>0.05): unchanged
- ability of Tregs to suppress proliferation of Teff cells from untreated mice (Tregs and Teff cells; Tregs from C646-treated mice, p<0.05): decreased
- response of Teff cells from treated mice to suppression by control normal Tregs (Tregs and Teff cells; Tregs from untreated mice): responded normally
- alloantigen-induced T cell activation or proliferation (CFSE dilution) or production of cytokines such as IL-2 and IFN-γ [3]: did not impair
- percentage of CFSE-labeled CD4 proliferating or dividing cells [3]: 73%
- percentage of CFSE-labeled CD8 proliferating or dividing cells [3]: 95%
- percentage of CFSE-labeled CD4 proliferating cells (CFSE-labeled T cells): 95.0%
- percentage of CFSE-labeled CD8 proliferating or dividing cells (CFSE-labeled T cells): 81.6%
- cardiac allograft rejection (cessation of heartbeat) (cardiac allografts; first experiment: 1×10^6 Teff plus 0.5×10^6 Tregs, HAT inhibitor via Alzet pump, DMSO gave long-term survival): restored rejection
- Teff cell responses in vivo (allograft rejection) (cardiac allografts; second experiment: Teff cells alone plus p300i 0.9 mg/kg/d for 14 d, Alzet pumps): does not suppress Teff cell responses in vivo
- graft function (isografts) (cardiac allografts; second experiment: WT B6 mice with normal B6 hearts): does not directly affect graft function
- T cell-dependent graft rejection (cardiac allografts; third experiment: Teff plus Tregs, Alzet pumps for 14 days): restored T cell-dependent graft rejection
- tumor growth (tumor volume) (TC1 lung cancer cells [4]; 0.9 mg/kg/day for about 14 days via Alzet pumps from day 6, days 6-19): suppressed tumor growth
- tumor growth by volume (TC1 lung cancer cells [4]; [6]): significantly reduced
- tumor growth by weight (TC1 lung cancer cells [4]; [6]): significantly reduced
- intratumoral CD4 mRNA (TC1 lung cancer cells [4]; [7]): significantly increased
- intratumoral CD8 mRNA (TC1 lung cancer cells [4]; [7]): comparable
- intratumoral Foxp3 mRNA (TC1 lung cancer cells [4]; [7]): significantly reduced
- intratumoral granzyme B mRNA (TC1 lung cancer cells [4]; [7]): significantly increased
- IFN-γ production by purified CD8 (ELISPOT) (TC1 lung cancer cells [4]; tumor-bearing treated mice): increased
- tumor growth (tumor volume) (TC1 lung cancer cells [5]; Alzet pumps from day 5, up to day 17): did not impair tumor growth
- acetylation of histone 3 in tumor extracts (TC1 lung cancer cells [5]; compared to DMSO-treated mice): Decreased acetylation of histone 3
- acetylation of alpha-tubulin in tumor extracts (TC1 lung cancer cells [5]; p300-independent target): unimpaired
